Data as given in patent US6130053A, “Method for selecting compounds for inhibition of neoplastic lesions” (priority 1999, dated 2000).

Key:
[1] = system: polyp formation in adenomatous polyposis coli patients; assay: Human clinical study in APC patients, polyp formation; type: in vivo
Method: A human clinical study was performed in APC patients, selecting exisulind in each instance. In that study, each patient had already had his/her colon removed, except for a small section of colon adjacent the rectum (where the small intestine was attached) to preserve rectal function. However, such a patient commonly forms polyps in the small remaining colonic section, which polyps require periodic removal (e.g., by electrocautery).
That trial where exisulind was selected was a prevention trial designed to compare the cumulative number of new polyps formed over twelve months by the drug and placebo groups. Eligible patients were those who form between 9 and 44 polyps per year. Patients were fully ablated (had all polyps removed) at the start of the study, at the end of 6 months and at the end of 12 months. The study enrolled thirty-four eligible patients. […] Based on the median number of polyps produced in the first six months of the study, patients treated with exisulind developed approximately one-third the number of polyps as patients treated with placebo (median values 9 polyps/year and 26 polyps/year, respectively; p=0.013). Based on the median number of polyps produced over the entire 12 months of the study, patients treated with exisulind produced approximately half the number of polyps as patients treated with placebo (median values 18 polyps/year and 38 polyps/year, respectively; p=0.020).

[2] = system: colon, breast, lung, prostate, kidney, and melanoma neoplasias; settings: cited from earlier work
[3] = system: PKG activity in SW480 cells; assay: PKG activity in SW480 cells (phosphorylation of GST-cGB-PDE5); type: cell-based, human; settings: 48 hrs; with and without added cGMP; exisulind 200-600 μM, E4021 0.1-10 μM
Method: Two different types of PDE inhibitors were evaluated for their effects on PKG in neoplastic cells. […], exisulind, was evaluated since it is anti-neoplastic. […] No. 09/173,375 to Liu et al filed Oct. 15, 1998. To test the effect of cGMP-specific PDE inhibition on neoplasia containing the APC mutation, SW480 colon cancer cells were employed. SW 480 is known to contain the APC mutation. […] The liquid media are aspirated from the dishes (the cells will attach themselves to the dishes). […] Immediately after the cell lysis buffer is added, the lysed cells are collected by scraping the cells off each dish. The cell lysate from each dish is transferred to a microfuge tube, and the microfuge tubes are incubated at 4° C. for 15 minutes while gently agitating the microfuge tubes to allow the cells to lyse completely. After lysis is complete, the microfuge tubes are centrifuged full speed (14,000 r.p.m.) for 15 minutes. The supernatant from each microfuge tube is transferred to a fresh microfuge tube. A protein assay is then performed on the contents of each microfuge tube because the amount of total protein will be greater in the control than in the drug-treated samples, if the drug inhibits cell growth. Obviously, if the drug does work, the total protein in the drug-treated samples should be […] control. […]

PKG in SW480 cells = assay: PKG expression by Western blot in SW480 cells; type: cell-based, human; settings: 48 hours
Method: This increase in PKG protein expression was further verified by relatively quantative western blot, as described below.
SW480 cells treated with exisulind as described previously are harvested from the microfuge tubes by rinsing once with ice-cold PBS. The cells are lysed by modified RIPA buffer for 15 minutes with agitation. The cell lysate is spun down in a cold room. The supernatants are transferred to fresh microcentrifuge tubes immediately after spinning. BioRad DC Protein Assay (Temecula, Calif.) is performed to determine the protein concentrations in samples. The samples are normalized for protein concentration, as described above.
50 μg of each sample is loaded to 10% SDS gel. SDS-PAGE is performed, and the proteins then are transferred to a nitrocellulose membrane. The blotted nitrocellulose membrane are blocked in freshly prepared TBST containing 5% nonfat dry milk for one hour at room temperature with constant agitation.
A goat-anti-PKG primary antibody is diluted to the recommended concentration/dilution in fresh TBST/5% nonfat dry milk. The nitrocellulose membrane is placed in the primary antibody solution and incubated one hour at room temperature with agitation. The nitrocellulose membrane is washed three times for ten minutes each with TBST. […]

HT-29 cells = assay: Growth inhibition of HT-29 cells; type: cell-based, human; settings: HT-29
β-catenin in SW480 cells = assay: β-catenin level by Western blot in SW480 cells; type: cell-based, human; settings: 48 hours
Method: SW480 cells were treated with exisulind or vehicle (0.1% DMSO) for 48 hours. 50 μg supernatant of each cell lysates were loaded to 10% SDS-gel and blotted to nitrocellulose membrane, and the membrane was probed with rabbit-anti-β-catenin and rabbit anti-PKG antibodies.
This observation was made by culturing SW480 cells with either 200-600 μM exisulind or vehicle (0.1% DMSO). The cells are harvested 48 hours post treatment and processed for immunoblotting. Immuno-reactive protein can be detected by western blot. […] Thus, using PKG activity in neoplastia as a screening tool to select compounds as anti-neoplastics is useful.

cGMP PDE = cGMP PDE inhibition assay, enzyme purified from HT-29 cultured tumor cells; type: biochemical, human
Method: The mixture is incubated at 30° C. for 10 minutes with isolated PDE of this invention. Reactions are terminated, for example, by boiling the reaction mixture for 75 seconds. After cooling on ice, 100 μl of 0.5 mg/ml snake venom (O. Hannah venom available from Sigma) is added and incubated for 10 minutes at 30° C. This reaction is then terminated by the addition of an alcohol, e.g. 1 ml of 100% methanol. Assay samples are applied to 1 ml Dowex 1-X8 column; and washed with 1 ml of 100% methanol. The amount of radioactivity in the breakthrough and the wash from the column is combined and measured with a scintillation counter. The degree of phosphodiesterase inhibition is determined by calculating the amount of radioactivity in drug-treated reactions and comparing against a control sample (a reaction mixture lacking the tested compound but with drug solvent).

[4] = system: PKG activity in HCT116 cells; assay: PKG activity in HCT116 cells; type: cell-based
From the text: To test the effect of cGMP-specific PDE inhibition on neoplasia containing the β-catenin mutation, HCT116 colon cancer cells were employed. HCT116 is known to contain the β-catenin mutation, but is known not to contain the APC mutation.
The same procedure is used to grow the HCT116 cells as is used in the SW480 procedure described above. In this experiment, only exisulind and controls were used.

With CC1=C(CC(=O)O)c2cc(F)ccc2/C1=C\c1ccc(S(C)(=O)=O)cc1 [Exisulind, 5-fluoro-2-methyl-1-(p-methylsulfonylbenzylidene)-3-indenylacetic acid] the “number of polyps relative to placebo, 12 months” value ([1]; entire 12 months) was “approximately half”, the “median number of polyps, 12 months” value ([1]; entire 12 months, placebo 38 polyps/year) was 18 polyps/year and the “number of polyps relative to placebo, first six months” value ([1]; first six months) was “approximately one-third”. For the same compound, the “median number of polyps, first six months” value ([1]; first six months, placebo 26 polyps/year) was 9 polyps/year, the “decrease of rate of polyp formation” value ([1]; vs placebo) was “clinically and statistically significantly better than placebo in decreasing the rate of polyp formation” and the “reported anti-neoplastic effects” value [2] was “anti-neoplastic effects on colon, breast, lung, prostate, kidney, and melanoma neoplasias”. For the same compound, the “PKG activity relative to control” value [3] was “causes PKG activity to increase in a dose-dependent manner”, the “PKG level by Western blot” value (PKG in SW480 cells) was “increase of PKG” and the “tumor cell growth inhibition” value (HT-29 cells) was “capable of inhibiting tumor cell growth”. The “β-catenin level by Western blot” value (β-catenin in SW480 cells) was “drop of β-catenin”, the “selectivity cGMP PDE over PDE4” value (cGMP PDE) was “selectivity for the cGMP PDE isoenzyme forms over PDE4 isoforms” and the “PKG activity relative to control” value [4] was “phosphorylated to a greater extent than the corresponding controls”.
